pIC50: −log10 of the molar value.
Key:
[1] = test system: human pancreatic cancer cells containing pancreatic cancer stem cells; experiment: Liver metastasis after transplantation to the pancreas of nude mice; format: in vivo; conditions: Am80 3 mg/kg/day for 1 month
Experimental: Pancreatic cancer cells (1×10^6 cells) containing pancreatic cancer stem cells were transplanted to the pancreas of nude mice, and the size of a tumor formed by metastasis to the liver was measured 1 month later. Am80 was administered at 3 mg/kg/day for 1 month.

[2] = test system: Human Leukemia Cell Line Kasumi-1; experiment: Growth inhibition of Kasumi-1, isobologram; format: cell-based; conditions: Homo sapiens; Kasumi-1, RPMI1640 with 20% FBS
Experimental: A human leukemia cell line Kasummi-1, containing cells positive for cancer stem cell markers, was cultured in RPMI1640 medium supplemented with 20% FBS, and the growth inhibitory action by the combination of Am80 and 5-AZ was studied using Isobologram. […] These concentrations were taken as 1.0, and the points corresponding to 1.0 in the two axes were connected to each other via a straight line. In cases where the ratio observed for the combination effect is on the line, the effect is additive, and, in cases where the ratio is below the line, the effect is synergistic.

[3] = test system: CD133-positive human pancreatic cancer stem cells; experiment: Cell migration in Boyden chambers; format: cell-based; conditions: Am80 1 μM, CD133-positive fraction
Experimental: Pancreatic cancer cells containing pancreatic cancer stem cells were separated into CD133-positive cells and negative cells using magnetic antibody beads, and Am80 was added at 1 μM to the fractions, followed by culturing the cells in Boyden chambers and then observing the cells migrated into the back side of the membrane.

[4] = test system: human prostate cancer cell line LNCaP; experiment: Growth inhibition of LNCaP in vitro; format: cell-based; conditions: Homo sapiens, 96 hours of exposure, RPMI1640 with 10% FBS
Experimental: A human prostate cancer cell line LNCaP, containing cells positive for cancer stem cell markers, was cultured in RPMI1640 medium supplemented with 10% FBS, and the growth inhibitory action by the combination of Am80 and 5-AZ was studied. […] Thus, in order to study the growth inhibitory action, Am80 was used within the concentration range of 0.125 μM to 1 μM with a common ratio of 2, and 5-AZ was used within the concentration range of 1.56 μM to 12.5 μM with a common ratio of 2. In cases of use of these agents in combination, the growth inhibitory action was studied using these concentrations.

[5] = test system: Human pancreatic cancer cells; experiment: Sphere formation of gemcitabine-treated pancreatic cancer cells (colony count); format: cell-based; conditions: cells cultured with gemcitabine (10 nM) 1 week, then Am80 1 week
Experimental: Human pancreatic cancer cells were cultured in the suspension-culture state in the presence of gemcitabine (10 nM) for 1 week. Thereafter, Am80 was added to the culture, and suspension culture was carried out for 1 week, followed by counting the number of colonies formed.

[6] = test system: human pancreatic cancer cells MIA-Paca2; experiment: Tumor volume, MIA-Paca2/nude mice; format: in vivo
Experimental: A tumor piece of human pancreatic cancer cells MIA-Paca2 containing cells positive for cancer stem cell markers was subcutaneously transplanted to the dorsal part of each of 6-week-old female BALB/cAJc1-nu nude mice (4 mice/group, 5 mice only for the control group) using a trocar needle. At the time when the tumor volume reached 100 to 200 mm^3, the administration was started. Am80 was orally administered once a day at a dose of 2 mg/kg for 21 continuous days, and DXL was intravenously administered at a dose of 5 mg/kg from Day 1, 3 times at intervals of 4 days. In the combination group, the agents were administered at the same doses as, and by the same administration methods as, those in the cases of administration of each single agent. Measurement of the tumor diameter was carried out until the next day of the completion of the administration (Day 22). Based on the measured values of the longitudinal diameter and the transverse diameter, the tumor volume (mm^3) was determined according to the following formula: longitudinal diameter×transverse diameter^2/2. In the control group, physiological saline was intraperitoneally administered from Day 1, 3 times at intervals of 4 days.

[7] = test system: human breast cancer cell line MCF-7; experiment: Tumor volume, MCF-7/nude mice; format: in vivo
Experimental: A tumor piece of a human breast cancer cell line MCF-7 containing cells positive for cancer stem cell markers was subcutaneously transplanted to the dorsal part of each of 6-week-old female BALB/cAJc1-nu nude mice (5 mice/group) using a trocar needle. At the time when the tumor volume reached 100 to 200 mm^3, the administration was started. Am80 was orally administered once a day at a dose of 1 mg/kg for 21 continuous days, and DXL was intravenously administered at a dose of 3.5 mg/kg from Day 1, 3 times at intervals of 4 days. In the combination group, the agents were administered at the same doses as, and by the same administration methods as, those in the cases of administration of each single agent. Measurement of the tumor diameter was carried out until the next day of the completion of the administration (Day 22). The longitudinal diameter and the transverse diameter of the tumor were measured using a caliper, and the tumor volume (mm^3) was determined according to the following formula: longitudinal diameter×transverse diameter^2/2. In the control group, physiological saline was intraperitoneally administered from Day 1, 3 times at intervals of 4 days.

[8] = test system: Human Pancreatic Cancer Cell Panc-1 Spheroids; experiment: ALDH activity (ALDEFLUOR, flow cytometry) in Panc-1 spheroids; format: cell-based; conditions: suspension culture with Am80 for 1 week
Experimental: As shown in Example 1, Am80 suppresses formation of cell clusters of the pancreatic cancer cell line in the suspension-culture state, and this might be due to a decrease in the number of the stem cells that act as the seeds of the cell clusters. It is known that the activity of aldehyde dehydrogenase (ALDH) is high in hematopoietic stem cells and progenitor cells, but low in differentiated cells. In view of this, a precursor Bodipy-aminoacetaldehyde (ALDEFLUOR, Stem Cell Technologies) was added to pancreatic cancer cells prepared by performing suspension culture in the presence of Am80 for 1 week, and the number of cells positive for the fluorescence of Bodipy-aminoacetate produced by metabolism by the aldehyde dehydrogenase activity was analyzed by quantification by flow cytometry.

SMILES: CC1(C)CCC(C)(C)c2cc(NC(=O)c3ccc(C(=O)O)cc3)ccc21 [Am80, tamibarotene]
- metastasis of the pancreatic cancer (size of tumor formed by metastasis to the liver) [1]: could be suppressed compared to the control
- pIC50 [2]: 6.00
- cell migration ability [3]: remarkable suppression
- pIC50 [4]: 5.70
- sphere formation (number of colonies formed) [5]: in vitro inhibitory effect on sphere formation
- tumor volume Day 1 ([6]; Am80 2 mg/kg oral daily 21 days, DXL 5 mg/kg i.v. 3 times at intervals of 4 days, Day 1): 151.3 mm^3
- tumor volume Day 5 ([6]; Am80 2 mg/kg oral daily, DXL 5 mg/kg i.v., Day 5): 182.1 mm^3
- tumor volume Day 9 ([6]; Am80 2 mg/kg oral daily, DXL 5 mg/kg i.v., Day 9): 255.5 mm^3
- tumor volume Day 13 ([6]; Am80 2 mg/kg oral daily, DXL 5 mg/kg i.v., Day 13): 348.8 mm^3
- tumor volume Day 17 ([6]; Am80 2 mg/kg oral daily, DXL 5 mg/kg i.v., Day 17): 429.9 mm^3
- tumor volume Day 22 ([6]; Am80 2 mg/kg oral daily, DXL 5 mg/kg i.v., Day 22): 466.4 mm^3
- tumor volume Day 1 ([7]; Am80 1 mg/kg oral daily 21 days, DXL 3.5 mg/kg i.v. 3 times at intervals of 4 days, Day 1): 155.3 mm^3
- tumor volume Day 5 ([7]; Am80 1 mg/kg oral daily, DXL 3.5 mg/kg i.v., Day 5): 151.3 mm^3
- tumor volume Day 9 ([7]; Am80 1 mg/kg oral daily, DXL 3.5 mg/kg i.v., Day 9): 155.5 mm^3
- tumor volume Day 13 ([7]; Am80 1 mg/kg oral daily, DXL 3.5 mg/kg i.v., Day 13): 208.9 mm^3
- tumor volume Day 17 ([7]; Am80 1 mg/kg oral daily, DXL 3.5 mg/kg i.v., Day 17): 229.4 mm^3
- tumor volume Day 22 ([7]; Am80 1 mg/kg oral daily, DXL 3.5 mg/kg i.v., Day 22): 261.4 mm^3
- ALDH activity (ALDH-positive cells) [8]: concentration-dependent decrease
